{
  "source": "patent US20240174634A1",
  "about": "“Aldehyde Dehydrogenase Inhibitors and Their Therapeutic Use” (priority 2020, published 2024)",
  "data": [
    {"target": "T1, ALDH1A3 (Homo sapiens, UniProt P47895)", "T1 sequence (P47895 1-512)": "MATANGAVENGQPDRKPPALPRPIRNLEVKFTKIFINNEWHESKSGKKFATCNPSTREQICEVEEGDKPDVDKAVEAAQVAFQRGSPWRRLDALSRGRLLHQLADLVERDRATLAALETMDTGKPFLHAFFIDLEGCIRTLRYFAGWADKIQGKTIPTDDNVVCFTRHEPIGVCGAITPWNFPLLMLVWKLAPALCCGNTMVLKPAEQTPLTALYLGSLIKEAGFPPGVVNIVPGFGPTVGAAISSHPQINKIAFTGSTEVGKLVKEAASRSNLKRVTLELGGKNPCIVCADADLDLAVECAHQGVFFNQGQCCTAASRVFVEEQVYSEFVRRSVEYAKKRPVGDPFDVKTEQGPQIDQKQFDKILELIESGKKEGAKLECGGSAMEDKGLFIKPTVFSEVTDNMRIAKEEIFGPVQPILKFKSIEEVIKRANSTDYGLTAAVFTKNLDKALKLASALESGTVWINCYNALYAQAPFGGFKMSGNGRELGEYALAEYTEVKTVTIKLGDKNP", "test": "Primary biochemical assay, NAD(P)H-Glo Detection System", "design": "His-tag; made in house; host or cells: E. coli Rosetta (DE3)", "details": "30 min pre-incubation, propionaldehyde and NAD at Km", "outline": "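Recombinant full-length His-tagged human enzymes expressed in E. coli were pre-incubated 30 min at room temperature with compound (10-point, 3-fold series; top 20 μM for ALDH1A3, 250 μM for ALDH1A1/1A2). Propionaldehyde and NAD were then added at Km; NADH was read by NAD(P)H-Glo luminescence. Buffer: Tris (pH 7.6 for 1A1/1A2, 9.0 for 1A3), 1 mM TCEP, 0.01% Tween-20.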", "units": {"IC50": "nM"}, "values": [
      {"smiles": "COc1cccc(C2CCCN2CCOc2ccc3c(c2)CCC(=O)N3)c1", "note": "(centres unmarked) [ALDHI-2034, 6-[2-[2-(3-methoxyphenyl)pyrrolidin-1-yl]ethoxy]-3,4-dihydro-1H-quinolin-2-one]", "IC50": "100 to 1000"},
      {"smiles": "CC1(c2ccccc2)COCCN1CCOc1ccc2c(c1)CCC(=O)N2", "note": "(centres unmarked) [ALDHI-2040, 6-[2-(3-methyl-3-phenyl-morpholin-4-yl)ethoxy]-3,4-dihydro-1H-quinolin-2-one]", "IC50": "100 to 1000"},
      {"smiles": "O=C1CCc2cc(NC(=O)c3ccccc3-c3cccc(F)c3)ccc2N1", "note": "[ALDHI-1007, 3′-fluoro-N-(2-oxo-1,2,3,4-tetrahydroquinolin-6-yl)-[1,1′-biphenyl]-2-carboxamide]", "IC50": "1000 to 10000"},
      {"smiles": "O=C1CCc2cc(OCCN3CCOCC3c3cccc(F)c3)ccc2N1", "note": "(centres unmarked) [ALDHI-2031, 6-[2-[3-(3-fluorophenyl)morpholin-4-yl]ethoxy]-3,4-dihydro-1H-quinolin-2-one]", "IC50": "< 100"},
      {"smiles": "CN(CCOc1ccc2c(c1)CCC(=O)N2)C(=O)c1cccnc1", "note": "[ALDHI-3013, N-methyl-N-[2-[(2-oxo-3,4-dihydro-1H-quinolin-6-yl)oxy]ethyl]pyridine-3-carboxamide]", "IC50": "100 to 1000"},
      {"smiles": "O=C1CCc2cc(NC(=O)c3ncsc3-c3ccsc3)ccc2N1", "note": "[ALDHI-1011, N-(2-oxo-3,4-dihydro-1H-quinolin-6-yl)-5-(3-thienyl)thiazole-4-carboxamide]", "IC50": "100 to 1000"},
      {"smiles": "O=C1CCc2cc(OCCN3CCCC3c3ccsc3)ccc2N1", "note": "(centres unmarked) [ALDHI-2014, 6-[2-[2-(3-thienyl)pyrrolidin-1-yl]ethoxy]-3,4-dihydro-1H-quinolin-2-one]", "IC50": "< 100"},
      {"smiles": "CC1(C)Oc2cc(OCCN3CCCC3c3cccc(F)c3)ccc2NC1=O", "note": "(centres unmarked) [ALDHI-2043, 7-[2-[2-(3-fluorophenyl)pyrrolidin-1-yl]ethoxy]-2,2-dimethyl-4H-1,4-benzoxazin-3-one]", "IC50": "100 to 1000"},
      {"smiles": "Cc1nc(C2CCCN2CCOc2ccc3c(c2)CCC(=O)N3)cs1", "note": "(centres unmarked) [ALDHI-2033, 6-[2-[2-(2-methylthiazol-4-yl)pyrrolidin-1-yl]ethoxy]-3,4-dihydro-1H-quinolin-2-one]", "IC50": "100 to 1000"},
      {"smiles": "O=C1CCc2cc(NC(=O)c3scnc3-c3ccccc3F)ccc2N1", "note": "[ALDHI-1021, 4-(2-fluorophenyl)-N-(2-oxo-3,4-dihydro-1H-quinolin-6-yl)thiazole-5-carboxamide]", "IC50": "< 100"},
      {"smiles": "CN(CCOc1ccc2c(c1)CCC(=O)N2)Cc1cccnc1", "note": "[ALDHI-3010, 6-[2-[methyl(3-pyridylmethyl)amino]ethoxy]-3,4-dihydro-1H-quinolin-2-one]", "IC50": "100 to 1000"},
      {"smiles": "O=C1CCc2cc(OCCN3CC(F)CC3c3cccc(F)c3)ccc2N1", "note": "(centres unmarked) [ALDHI-2052, 6-[2-[4-fluoro-2-(3-fluorophenyl)pyrrolidin-1-yl]ethoxy]-3,4-dihydro-1H-quinolin-2-one]", "IC50": "< 100"},
      {"smiles": "Cc1cccc(C2CCCN2CCOc2ccc3c(c2)CCC(=O)N3)c1", "note": "(centres unmarked) [ALDHI-2011, 6-[2-[2-(m-tolyl)pyrrolidin-1-yl]ethoxy]-3,4-dihydro-1H-quinolin-2-one]", "IC50": "100 to 1000"},
      {"smiles": "Cc1noc(-c2ccccc2C(=O)Nc2ccc3c(c2)CCC(=O)N3)n1", "note": "[ALDHI-1008, 2-(3-methyl-1,2,4-oxadiazol-5-yl)-N-(2-oxo-1,2,3,4-tetrahydroquinolin-6-yl)benzamide]", "IC50": "100 to 1000"},
      {"smiles": "O=c1ccc2cc(OCCN3CCCC3c3cccc(F)c3)ccc2[nH]1", "note": "(centres unmarked) [ALDHI-2022, 6-[2-[2-(3-fluorophenyl)pyrrolidin-1-yl]ethoxy]-1H-quinolin-2-one]", "IC50": "< 100"},
      {"smiles": "CN(C)c1nc(-c2cccc(F)c2)c(C(=O)Nc2ccc3c(c2)CCC(=O)N3)s1", "note": "[ALDHI-1002, 2-(dimethylamino)-4-(3-fluorophenyl)-N-(2-oxo-3,4-dihydro-1H-quinolin-6-yl)thiazole-5-carboxamide]", "IC50": "< 100"},
      {"smiles": "O=C1CCc2cc(OCCN3CCCCC3c3cccc(F)c3)ccc2N1", "note": "(centres unmarked) [ALDHI-2038, 6-[2-[2-(3-fluorophenyl)-1-piperidyl]ethoxy]-3,4-dihydro-1H-quinolin-2-one]", "IC50": "< 100"},
      {"smiles": "O=C1CCc2cc(OCCN3CCCC3c3cccc(F)c3)c(F)cc2N1", "note": "(centres unmarked) [ALDHI-2050, 7-fluoro-6-[2-[2-(3-fluorophenyl)pyrrolidin-1-yl]ethoxy]-3,4-dihydro-1H-quinolin-2-one]", "IC50": "< 100"},
      {"smiles": "O=C1CSc2cc(OCCN3CCCC3c3ccncc3)ccc2N1", "note": "(centres unmarked) [ALDHI-2029, 7-[2-[2-(4-pyridyl)pyrrolidin-1-yl]ethoxy]-4H-1,4-benzothiazin-3-one]", "IC50": "100 to 1000"},
      {"smiles": "O=C1CCc2cc(NC(=O)c3ncsc3-c3cccc(F)c3)ccc2N1", "note": "[ALDHI-1014, 5-(3-fluorophenyl)-N-(2-oxo-3,4-dihydro-1H-quinolin-6-yl)thiazole-4-carboxamide]", "IC50": "100 to 1000"},
      {"smiles": "O=C1CCc2cc(OCCn3ccnc3-c3ccccc3)ccc2N1", "note": "[ALDHI-2041, 6-[2-(2-phenylimidazol-1-yl)ethoxy]-3,4-dihydro-1H-quinolin-2-one]", "IC50": "100 to 1000"},
      {"smiles": "O=C1CCc2cc(OCCN3CCCC3c3ccc(F)c(F)c3)ccc2N1", "note": "(centres unmarked) [ALDHI-2039, 6-[2-[2-(3,4-difluorophenyl)pyrrolidin-1-yl]ethoxy]-3,4-dihydro-1H-quinolin-2-one]", "IC50": "< 100"},
      {"smiles": "O=C1CCc2cc(OCCN3CCCC3c3ccccc3)ccc2N1", "note": "(centres unmarked) [ALDHI-2019, 6-[2-(2-phenylpyrrolidin-1-yl)ethoxy]-3,4-dihydro-1H-quinolin-2-one]", "IC50": "100 to 1000"},
      {"smiles": "CCn1cc(C2CCCN2CCOc2ccc3c(c2)CCC(=O)N3)cn1", "note": "(centres unmarked) [ALDHI-2016, 6-[2-[2-(1-ethylpyrazol-4-yl)pyrrolidin-1-yl]ethoxy]-3,4-dihydro-1H-quinolin-2-one]", "IC50": "100 to 1000"},
      {"smiles": "O=C1CCc2cc(NC(=O)c3sc(N4CCNCC4)nc3-c3cccc(F)c3)ccc2N1", "note": "[ALDHI-1005, 4-(3-fluorophenyl)-N-(2-oxo-3,4-dihydro-1H-quinolin-6-yl)-2-piperazin-1-yl-thiazole-5-carboxamide]", "IC50": "< 100"},
      {"smiles": "O=C1CCc2cc(OCCN3C(=O)CCC3c3ccccc3)ccc2N1", "note": "(centres unmarked) [ALDHI-2051, 6-[2-(2-oxo-5-phenyl-pyrrolidin-1-yl)ethoxy]-3,4-dihydro-1H-quinolin-2-one]", "IC50": "< 100"},
      {"smiles": "O=C1CCc2cc(OCCN3CCC3c3cccc(F)c3)ccc2N1", "note": "(centres unmarked) [ALDHI-2021, 6-[2-[2-(3-fluorophenyl)azetidin-1-yl]ethoxy]-3,4-dihydro-1H-quinolin-2-one]", "IC50": "100 to 1000"},
      {"smiles": "O=C1CCc2cc(NC(=O)c3sccc3-c3cccc(F)c3)ccc2N1", "note": "[ALDHI-1022, 3-(3-fluorophenyl)-N-(2-oxo-3,4-dihydro-1H-quinolin-6-yl)thiophene-2-carboxamide]", "IC50": "100 to 1000"},
      {"smiles": "O=C1CCc2cc(OCCN3CCCC3c3ccc(F)cc3)ccc2N1", "note": "(centres unmarked) [ALDHI-2003, 6-[2-[2-(4-fluorophenyl)pyrrolidin-1-yl]ethoxy]-3,4-dihydro-1H-quinolin-2-one]", "IC50": "< 100"},
      {"smiles": "O=C1COc2cc(NC(=O)c3scnc3-c3cccc(F)c3)ccc2N1", "note": "[ALDHI-1016, 4-(3-fluorophenyl)-N-(3-oxo-4H-1,4-benzoxazin-7-yl)thiazole-5-carboxamide]", "IC50": "100 to 1000"},
      {"smiles": "O=C1CCc2cc(NC(=O)c3scnc3-c3cccs3)ccc2N1", "note": "[ALDHI-1023, N-(2-oxo-3,4-dihydro-1H-quinolin-6-yl)-4-(2-thienyl)thiazole-5-carboxamide]", "IC50": "< 100"},
      {"smiles": "CN(CCOc1ccc2c(c1)CCC(=O)N2)C(=O)c1cccc(F)c1", "note": "[ALDHI-3008, 3-fluoro-N-methyl-N-[2-[(2-oxo-3,4-dihydro-1H-quinolin-6-yl)oxy]ethyl]benzamide]", "IC50": "100 to 1000"}
    ]}
  ]
}
